The values that follow come from US11975051B1, “Therapeutic peptides and uses thereof” (priority 2022, dated 2024).

For one test, the system named is ALS patient-derived ASCs. Nature of the test: Stressed ALS patient-derived ASCs treated with peptides, SeaHorse analytics (Example 6). The following applies: tested at 0.5 and/or 5 mM (TP-5 0.01-100 mM), DMSO/H2O. The class given is cell-based, human. The text has this: ALS patient-derived ASCs showing hypermetabolism and lipid sequestration were stressed and treated with peptides (shown below, column 2) and effect of the peptide measured with SeaHorse analytics.

In a further test the test system is ALS patients. The following applies: cited from earlier work.
Another test relates to patients with ALS. To be noted: cited from earlier work.
For a further test, the system named is IL-6. Nature of the test: IL-6 lowering in ConA stimulated peripheral blood mononuclear cells. Format: cell-based, human. To be noted: 5 μg/mL ConA 72 hours, N=3. The text has this:
(§1) The influence of proinflammatory cytokines on the immunoregulatory function of immune cells from healthy donors may be assessed using mitogen-stimulated PBMC responses, which can be measured by determining the effect of test compounds on cytokine levels after stimulation by Concanavilin A (“ConA”). See Arneth, CURRENT PROTOCOLS IN CYTOMETRY 6.28 supplement 51 (2010); A. Erhardt et al., Immunology and Liver Disease Karger (2010); W. Ge et al., INTERNATIONAL IMMUNOPHARMACOLOGY 85 (2020); S. Malchow et al., BICHIMICA ET BIOPHYSICA ACTA 1812:290-301 (2011); A. Thomazelli et al., IMMUNOPHARMACOLOGY AND IMMUNOTOXICOLOGY, 40:5:387-392 (2018); N. Umeda et al., LEUKOCYTE BIOLOGY 791-801 (2019); H. Wang et al., WORLD JOURNAL OF GASTROENTEROLOGY 119-125 (2012).
(§2) Normal human PBMCs were stimulated with 5 μg/mL ConA for 72 hours followed by treatment with test compound, each of which are set forth in Table 6, at either 4.15 μM or 41.5 μM. Data represents mean of either TNFα or interleukin IL-6 lowering after ConA stimulation±SD. 2-way ANOVA with Dunnet's multiple comparison test; * p<0.05 (represented as +); ** p<0.01 (represented as ++); *** p<0.001 **** (represented as +++); p<0.0001 (represented as ++++); N=3 replicates. Both TNFα and IL-6 are inflammatory cytokines for which the lowering would be expected to provide therapeutic benefit for a variety of diseases. For example, TNFα is implicated in the inflammation associated with neurodegenerative and inflammatory disorders (see, e.g., G. D. Kalliolias et al., TNF biology, pathogenic mechanisms and emerging therapeutic strategies, 12(1) NATURE REVIEWS RHEUMATOLOGY 49-62 (2016)) as is […] (see, e.g., S. Kaur et al., A panoramic review of IL-6: Structure, pathophysiological roles and inhibitors, 28(5) BIOORG. MED. CHEM. 115327 (2020)).

The test system of the next test is TNFα. The test can be described thus: TNFα lowering in ConA stimulated peripheral blood mononuclear cells. To be noted: 5 μg/mL ConA 72 hours, N=3. Format: cell-based, human.
Text: as §1, §2

Where no end group is shown, it is not given here. [ ]: non-standard residue; d: D form.

Regarding “8 (Ac-[dY][dV][dD][dK][dR]-NH2) [Compound 8]”, in the test with ALS patient-derived ASCs, the “Conc. with positive effect” value came to 5 mM.

For the compound `CC1=NN(c2ccccc2)C(=O)C1` [Edavarone], the “slowing of the progression of disease” value with ALS patients is listed as 33%.

Take `Nc1nc2ccc(OC(F)(F)F)cc2s1` [Riluzole]: the extension of life entry in the test on patients with ALS is given as “several months”.

For “6 (Ac-[dY][dV][dD][dK][dR]-NHMe) [Compound 6]”, the “IL-6 lowering after ConA stimulation (significance)” value (from here on “IL-6 lowering … (significance)”) with IL-6 (4.15 μM test compound) was “+ (* p<0.05 (represented as +))”; in the test with IL-6 (41.5 μM test compound), “++++ (p<0.0001 (represented as ++++))”. The “Conc. with positive effect” value in the test with ALS patient-derived ASCs worked out at 5 mM. For the same compound, the “TNFα lowering after ConA stimulation (significance)” value (shortened to “TNFα lowering … (significance)”) in the test on TNFα (4.15 μM test compound) and with TNFα (41.5 μM test compound) was “++++ (p<0.0001 (represented as ++++))” in each case.

For 1 (RKDVY) [Compound 1], the “IL-6 lowering … (significance)” value with IL-6 (4.15 μM test compound) is on record as “+ (* p<0.05 (represented as +))”; in the test with IL-6 (41.5 μM test compound) it was “+++ (*** p<0.001 **** (represented as +++))”. Further, the “Conc. with positive effect” value with ALS patient-derived ASCs is given as “none”. Also, the “TNFα lowering … (significance)” value in the test on TNFα (4.15 μM test compound) is given as “+++ (*** p<0.001 **** (represented as +++))”; in the test with TNFα (41.5 μM test compound), “++++ (p<0.0001 (represented as ++++))”.

As to “Arg-Lys-Asp-Val-Tyr-NH2 (RKDVY-NH2) [Compound 2]”, the “IL-6 lowering … (significance)” value in the test with IL-6 (4.15 μM test compound) is listed as “++ (** p<0.01 (represented as ++))”; with IL-6 (41.5 μM test compound), “+++ (*** p<0.001 **** (represented as +++))”. Further, the “Conc. with positive effect” value in the test with ALS patient-derived ASCs is listed as “none”. Besides, the “TNFα lowering … (significance)” value with TNFα (4.15 μM test compound) and in the test on TNFα (41.5 μM test compound) was “++ (** p<0.01 (represented as ++))” each time.

In the case of “D-Tyr-D-Val-D-Asp-D-Lys-D-Arg-NH2 ([dY][dV][dD][dK][dR]-NH2) [Compound 7]”, the “Conc. with positive effect” value with ALS patient-derived ASCs is 0.5 mM.

Turning to “Ac-Arg-Lys-Asp-Val-Tyr-NH2 (Ac-RKDVY-NH2) [Compound 3]”, the “IL-6 lowering … (significance)” value in the test with IL-6 (41.5 μM test compound) is reported as “+++ (*** p<0.001 **** (represented as +++))”. Moreover, in the test on ALS patient-derived ASCs, the “Conc. with positive effect” value is on record as “none”. For the same compound, the “TNFα lowering … (significance)” value is listed as “+ (* p<0.05 (represented as +))” in the test on TNFα (4.15 μM test compound) and “++ (** p<0.01 (represented as ++))” in the test on TNFα (41.5 μM test compound).

For the compound “Ac-Arg-Lys-Asp-Val-Tyr-NHMe (Ac-RKDVY-NHMe; SMILES CNC(=O)[C@H](Cc1ccc(O)cc1)NC(=O)[C@@H](NC(=O)[C@H](CC(=O)O)NC(=O)[C@H](CCCCN)NC(=O)[C@H](CCCNC(=N)N)NC(C)=O)C(C)C) [Compound 5]”, the “IL-6 lowering … (significance)” value is “+ (* p<0.05 (represented as +))” with IL-6 (4.15 μM test compound) and “++ (** p<0.01 (represented as ++))” in the test on IL-6 (41.5 μM test compound). In addition, the “Conc. with positive effect” value with ALS patient-derived ASCs is “none”. Further, the “TNFα lowering … (significance)” value in the test on TNFα (41.5 μM test compound) is reported as “+ (* p<0.05 (represented as +))”.

With “Arg-Lys-Asp-Val-Tyr-NHMe (RKDVY-NHMe) [Compound 4]”, the figures for the “IL-6 lowering … (significance)” value with IL-6 (4.15 μM test compound) and in the test with IL-6 (41.5 μM test compound) were “+ (* p<0.05 (represented as +))” and “++ (** p<0.01 (represented as ++))”, respectively. In the test with ALS patient-derived ASCs, the “Conc. with positive effect” value is “none”. Besides, the “TNFα lowering … (significance)” value in the test on TNFα (4.15 μM test compound) is listed as “++ (** p<0.01 (represented as ++))”; in the test with TNFα (41.5 μM test compound), “+++ (*** p<0.001 **** (represented as +++))”.
